# Measurements taken from patent US20120076766A1, “Topical drug delivery system with dual carriers” (priority 2010, published 2012).
# Assays:
# HL-60 cells = details: cited from earlier work
# MRSA = test: Study III: human field study, diabetic foot lesion with cellulitus; assay type: in vivo; details: IV, for MRSA, 8 days following admission
# Description: In this embodiment, the additional ingredient to hasten a third therapeutic tissue healing effect was added. This embodiment used vitamin D in a small but medically efficacious amount.
Compound,amount at which results (desired cellular responses) occurred (HL-60 cells),patient response to treatment (MRSA),subsequent retinoid-induced TGM2 expression (HL-60 cells; priming of the cells by pretreatment)
"C[S+](C)[O-] [DMSO, dimethyl sulfoxide]",less than 2%,,
"CN[C@H](CC(C)C)C(=O)N[C@H]1C(=O)N[C@@H](CC(N)=O)C(=O)N[C@H]2C(=O)N[C@H]3C(=O)N[C@H](C(=O)N[C@H](C(=O)O)c4cc(O)cc(O)c4-c4cc3ccc4O)[C@H](O)c3ccc(c(Cl)c3)Oc3cc2cc(c3O[C@@H]2O[C@H](CO)[C@@H](O)[C@H](O)[C@H]2O[C@H]2C[C@](C)(N)[C@H](O)[C@H](C)O2)Oc2ccc(cc2Cl)[C@H]1O [vancomycin, Vancomycin]",,did not respond,
vitamin D,about 100 nM,,increases
